Consider one molecule from patent publication US7482367B2, “Substituted benzimidazoles and methods of their use” (Novartis Vaccines and Diagnostics, Inc., priority 2005, dated 2009).

Molecules are shown by their SMILES. Where two headings read alike, the source gives them in different places.

The format of data set [1] is in vivo, Nu/Nu mice. The note with it: for Mean body weight loss on day 28: 100 mg/kg per dose. The procedure: Therefore, the most efficacious dosage of 100 mg/kg was further evaluated as described below.
The format of data set [2] is in vivo, mice. The note with it: at target plasma concentration, corrected for protein binding.
The next data set is described as follows: Plasma protein binding. Format: in vitro ADME.
The subject of data set [3] is SKMEL-2 (wild-type Raf, mutant N-Ras). As to conditions: SKMEL-2 cells; 0.1 μM to 10 μM; 4 hours of incubation.
The test system of data set [4] is CHL-1 (wild-type Raf, wild-type Ras). As to conditions: CHL-1 cells; 0.1 μM to 10 μM; 4 hours of incubation.
For data set [5], the system named is human tumor isolate #4. The note with it: Pancreatic tumor, K-Ras.
Data set [6] has as its system human tumor isolate #5. The note with it: Colorectal tumor, K-Ras.
Data set [7] concerns HT-29 (B-Raf V600E) colorectal carcinoma tumors. The note with it: HT29, q2 d × 14, oral.
Data set [8] relates to SKMEL-28 (mutant B-Raf V600E). Description: cells. The note with it: Homo sapiens, SK-MEL-28, read-out: pERK inhibition EC50.
In a further data set the test system is WM1799 (cell line). Description: cells. The note with it: WM-1799, 168 h.
A further data set deals with HT-29 (cell line). Description: cells. The note with it: Homo sapiens, HT-29, 168 h.
A further data set has as its system Colo205 (cell line). Description: cells. As to conditions: Homo sapiens, COLO 205, 168 h.
Another data set has as its system human tumor isolate #1. The data set can be described thus: cells.
For another data set, the system named is human tumor isolate #2. Description: cells.
Another data set concerns human tumor isolate #3. The data set can be described thus: cells.
Data set [9] relates to human tumor isolate #4. Description: cells. As to conditions: Pancreatic tumor, K-Ras.
For data set [10], the system named is human tumor isolate #5. Description: cells. As to conditions: Colorectal tumor, K-Ras.
The subject of a further data set is human tumor isolate #6. The data set can be described thus: cells.
For another data set, the system named is human tumor isolated #7. The data set can be described thus: tissue or blood.

Regarding `Cn1c(Nc2ccc(C(F)(F)F)cc2)nc2cc(Oc3ccnc(-c4ncc(C(F)(F)F)[nH]4)c3)ccc21` [Example 1, {1-Methyl-5-[2-(5-trifluoromethyl-1H-imidazol-2-yl)-pyridin-4-yloxy]-1H-benzoimidazol-2-yl}-(4-trifluoromethyl-phenyl)-amine], the “Mean body weight loss on day 28” value in [1] (q2 d) is listed as 12%; in data set [1] (q3 d) it was 8%; in data set [1] (q4 d) it was 7%. Besides, in data set [1] (daily dosing, 30 mg/kg and 100 mg/kg dose levels), the “average loss of starting body weight by day 14” value is recorded as 10%. Besides, in [2], the “rough estimation of free drug concentration” value is reported as “approximately 0.135 μM”. In “Plasma protein binding”, the “protein bound in plasma” value is on record as “greater than 99.9%”. In addition, the “inhibition of Raf downstream signaling (MEK phosphorylation)” value in [3] and in [4] was “potent inhibitor of Raf downstream signaling” throughout. In addition, the concentration giving a half-maximal response (EC50) (in general, the concentration at which the effect is half-maximal) in the data set on human tumor isolate #4 [5] was 1.27 µM; with human tumor isolate #5 [6] it was 1.2 µM; in [8] it was 0.1 µM; with WM1799 (cell line), < 0.0098 µM; in the data set with HT-29 (cell line) it was 0.026 µM; with Colo205 (cell line) it was 0.13 µM. Moreover, the EC50 was 0.055 µM with human tumor isolate #1; 0.2 µM in the data set with human tumor isolate #2; 0.57 µM with human tumor isolate #3; ~1 µM in the data set on human tumor isolate #4 [9]; ~1 µM with human tumor isolate #5 [10]; > 1 µM in the data set on human tumor isolate #6. Besides, in the data set on human tumor isolated #7, the EC50 was > 1 µM. Moreover, the TGI/Regression is listed as 12% TGI in data set [7] (10 mg/kg) and “tumor regression” in [7] (100 mg/kg).
